According to patent US9068949B2, “System and method for multiplex spectroscopic imaging” (Purdue Research Foundation, priority 2013, dated 2015):

System: intact mouse ear
Experiment: DMSO penetration into intact mouse ear monitored by multiplex SRS imaging with MCR analysis
Assay type: in vivo
Conditions: DMSO applied to intact mouse ear
Method: In order to reduce ambiguity associated with MCR decomposition, a data augmentation matrix composed of repeating reference spectra, if needed, can be added to the spectral dataset D. The enhanced weight on pure reference spectra permits the MCR algorithm to selectively recover concentration profiles for corresponding Raman bands. An experiment was performed to test this. For tissue penetration data, pure DMSO spectrum and lipid spectrum were provided as initial estimations (reference spectra) for MCR analysis. A data augmentation matrix including reference spectra of DMSO and lipid was added to the spectral dataset in order to reduce ambiguity. For analysis of aqueous solutions of DMSO, a data augmentation matrix composed of reference spectra of DMSO was added to the spectral dataset in order to reduce MCR's ambiguity. A non-negativity constraint was used during the iterations.
FIGS. 10A, 10B, 11A, 11B, and 12 show experimental data of SRS imaging. Various aspects of parallel detection herein advantageously provide a speed of acquiring a spectrum at 30 μs time scale, or over 30,000 spectra per second. For imaging, this scheme avoids spectral profile distortion induced by sample movement, thus enabling observation of target molecules in a highly dynamic system. […] Every three minutes, one spectroscopic SRL image was acquired at the speed of 3 s per frame of 200×200 pixels. Importantly, although the C—H Raman spectra of DMSO and lipid are completely overlapped, spectroscopic SRS imaging, followed by employing MCR analysis as described above, permitted determining concentration maps of lipids and DMSO over time.
The scale bar in the 5-minute image in FIG. 10A is 20 μm. The arrow near the center of the 32-minute image in FIG. 10A indicates the location at which concentrations were measured for FIG. 12, discussed below.
The temporal dynamics of DMSO (circles) and lipid (squares) concentrations are shown. The curve represents fitting by a diffusion model. […]

structure of the fat cells after DMSO application (imaged up to 32 minutes): remained intact
DMSO penetration into the adipose tissue (lipid-abundant layer ~50 μm beneath the skin surface, in the first 5 min): Very small amounts
Structure (SMILES): C[S+](C)[O-] [DMSO, dimethyl sulfoxide]
distribution of DMSO in the adipose tissue (lipid-abundant layer ~50 μm beneath the skin surface, after 30 min): inter-cell distribution of DMSO was observed
